Laboratory results from ChEMBL document CHEMBL1154064, “Synthesis and DNA cleavage activity of 2-hydrazinyl-1,4,5,6-tetrahydropyrimidine containing hydroxy group” (2009).
Calls of active or inactive are those of the source. No cut-off for these calls is given here.

How the values were obtained:
Nucleic Acid [1] = assay: Binding affinity to Escherichia coli pUC19 DNA assessed as form 2 DNA level at 0.349 mM by agarose gel electrophoresis; assay type: nucleic-acid assay
Nucleic Acid [2] = assay: Binding affinity to Escherichia coli pUC19 DNA assessed as form 1 DNA level at 0.698 mM after 10.70 hrs by agarose gel electrophoresis; assay type: nucleic-acid assay
Nucleic Acid [3] = assay: Binding affinity to Escherichia coli pUC19 DNA assessed as form 2 DNA level at 0.349 mM after 28.18 hrs by agarose gel electrophoresis; assay type: nucleic-acid assay
Nucleic Acid [4] = assay: Binding affinity to Escherichia coli pUC19 DNA assessed as form 2 DNA level at 0.175 mM after 13.07 hrs by agarose gel electrophoresis; assay type: nucleic-acid assay
Nucleic Acid [5] = assay: Binding affinity to Escherichia coli pUC19 DNA assessed as form 2 DNA level at 0.320 mM after 27.33 hrs by agarose gel electrophoresis; assay type: nucleic-acid assay
Nucleic Acid [6] = assay: Binding affinity to Escherichia coli pUC19 DNA assessed as form 1 DNA level at 0.262 mM after 27.07 hrs by agarose gel electrophoresis; assay type: nucleic-acid assay
Nucleic Acid [7] = assay: Binding affinity to Escherichia coli pUC19 DNA assessed as form 2 DNA level at 0.130 mM after 11.30 hrs by agarose gel electrophoresis; assay type: nucleic-acid assay
Nucleic Acid [8] = assay: Binding affinity to Escherichia coli pUC19 DNA assessed as form 2 DNA level at 0.175 mM after 23.12 hrs by agarose gel electrophoresis; assay type: nucleic-acid assay
HeLa = assay: Growth inhibition of human HeLa cells at 100 uM after 72 hrs by MTT assay; assay type: functional; parameters: scale not given: the % may be the effect or the level left
Nucleic Acid [9] = assay: Binding affinity to Escherichia coli pUC19 DNA assessed as form 2 DNA level at 0.698 mM after 8.45 hrs by agarose gel electrophoresis; assay type: nucleic-acid assay
Nucleic Acid [10] = assay: Binding affinity to Escherichia coli pUC19 DNA assessed as form 2 DNA level at 0.698 mM after 12.13 hrs by agarose gel electrophoresis; assay type: nucleic-acid assay
Nucleic Acid [11] = assay: Binding affinity to Escherichia coli pUC19 DNA assessed as form 1 DNA level at 0.698 mM by agarose gel electrophoresis; assay type: nucleic-acid assay
Nucleic Acid [12] = assay: Binding affinity to Escherichia coli pUC19 DNA assessed as form 1 DNA level at 0.175 mM after 27.33 hrs by agarose gel electrophoresis; assay type: nucleic-acid assay
Nucleic Acid [13] = assay: Binding affinity to Escherichia coli pUC19 DNA assessed as form 2 DNA level at 0.349 mM after 11.33 hrs by agarose gel electrophoresis; assay type: nucleic-acid assay
Nucleic Acid [14] = assay: Binding affinity to Escherichia coli pUC19 DNA assessed as form 1 DNA level at 0.349 mM after 23.02 hrs by agarose gel electrophoresis; assay type: nucleic-acid assay
Nucleic Acid [15] = assay: Binding affinity to Escherichia coli pUC19 DNA assessed as form 2 DNA level at 0.698 mM after 10.70 hrs by agarose gel electrophoresis; assay type: nucleic-acid assay
Nucleic Acid [16] = assay: Binding affinity to Escherichia coli pUC19 DNA assessed as form 2 DNA level at 0.262 mM after 24.08 hrs by agarose gel electrophoresis; assay type: nucleic-acid assay
Nucleic Acid [17] = assay: Binding affinity to supercoiled Escherichia coli pUC19 DNA assessed as formation of nicked circular DNA at 1.10 mM at pH 6.0 for 24 hrs in presence of potassium iodide by agarose gel electrophoresis; assay type: nucleic-acid assay
Nucleic Acid [18] = assay: Binding affinity to Escherichia coli pUC19 DNA assessed as form 1 DNA level at 0.175 mM after 23.12 hrs by agarose gel electrophoresis; assay type: nucleic-acid assay
Nucleic Acid [19] = assay: Binding affinity to Escherichia coli pUC19 DNA assessed as form 2 DNA level at 0.175 mM after 31.48 hrs by agarose gel electrophoresis; assay type: nucleic-acid assay
Nucleic Acid [20] = assay: Binding affinity to Escherichia coli pUC19 DNA assessed as form 2 DNA level at 0.463 mM by agarose gel electrophoresis; assay type: nucleic-acid assay
HL-60 [21] = assay: Growth inhibition of human HL60 cells at 10 uM after 72 hrs by MTT assay; assay type: functional; parameters: scale not given: the % may be the effect or the level left
HL-60 [22] = assay: Growth inhibition of human HL60 cells at 1000 uM after 72 hrs by MTT assay; assay type: functional; parameters: scale not given: the % may be the effect or the level left
Nucleic Acid [23] = assay: Binding affinity to Escherichia coli pUC19 DNA assessed as form 2 DNA level at 0.698 mM after 23.80 hrs by agarose gel electrophoresis; assay type: nucleic-acid assay
Nucleic Acid [24] = assay: Binding affinity to Escherichia coli pUC19 DNA assessed as form 2 DNA level at 0.320 mM after 13.07 hrs by agarose gel electrophoresis; assay type: nucleic-acid assay

Cl.Cl.NNC1=NCC(O)CN1 (stereo not given)
Activity (Nucleic Acid [1]): 2.46% | Activity (Nucleic Acid [2]): 78.2% | Activity (Nucleic Acid [3]): 34.4% | Activity (Nucleic Acid [4]): 9.19% | Activity (Nucleic Acid [5]): 67.8% | Activity (Nucleic Acid [6]): 84.7% | Activity (Nucleic Acid [7]): 21.8% | Activity (Nucleic Acid [8]): 19.2% | Activity (HeLa): 0% | Activity (Nucleic Acid [9]): 15.2% | Activity (Nucleic Acid [10]): 23% | Activity (Nucleic Acid [11]): 98.1% | Activity (Nucleic Acid [12]): 76% | Activity (Nucleic Acid [13]): 9.09% | Activity (Nucleic Acid [14]): 72.3% | Activity (Nucleic Acid [15]): 21.8% | Activity (Nucleic Acid [16]): 10.5% | Activity (Nucleic Acid [17]): inactive | Activity (Nucleic Acid [18]): 80.8% | Activity (Nucleic Acid [19]): 26% | Activity (Nucleic Acid [20]): 3.75% | Activity (HL-60 [21]): 2% | Activity (HL-60 [22]): 91% | Activity (Nucleic Acid [23]): 45% | Activity (Nucleic Acid [24]): 87.8%
